# Test results published in US20230303589A1, “CRYSTALLINE FORMS OF CFTR MODULATORS” (Vertex Pharmaceuticals Incorporated, priority 2020, published 2023).
# Legend:
# CFTR = CFTR (Homo sapiens, UniProt P13569); experiment: Membrane potential dye assay in human intestinal epithelial enteroid cells; format: cell-based; settings: CFTR-mediated chloride transport; 18-24 h incubation; acute 10 µM forskolin and 300 nM Compound III
# Description: Base medium (ADF+++) consisted of Advanced DMEM/Ham’s F12, 2 mM Glutamax, 10 mM HEPES, […] penicillin/streptomycin.
# Intestinal enteroid maintenance medium (IEMM) consisted of ADF+++, 1x B27 supplement, 1x N2 supplement, 1.25 mM N-acetyl cysteine, 10 mM Nicotinamide, 50 ng/mL hEGF, 10 nM Gastrin, 1 µg/mL hR-spondin-1, 100 ng/mL hNoggin, TGF-b type 1 inhibitor A-83-01, 100 µg/mL Primocin, 10 µM P38 MAPK inhibitor SB202190.
# Bath 1 Buffer consisted of 1 mM MgC12, 160 mM NaCl, 4.5 mM KC1, 10 mM HEPES, 10 mM Glucose, 2 mM CaCl2.
# Chloride Free Buffer consisted of 1 mM Magnesium Gluconate, 2 mM Calcium Gluconate, 4.5 mM Potassium Gluconate, 160 mM Sodium Gluconate, 10 mM HEPES, 10 mM Glucose.
# Bath1 Dye Solution consisted of Bath 1 Buffer, 0.04% Pluronic F127, 20 µM Methyl Oxonol, 30 µM CaCCinh-A01, 30 µM Chicago Sky Blue. […]
# Enteroid cells were incubated with test compound in IEMM for 18-24 h at 37° C., 95% humidity and 5% CO2. […] Chloride transport was initiated by addition of Chloride Free Dye Stimulation Solution and the fluorescence signal was read for 15 min. […] Chloride transport was then expressed as a percentage of the chloride transport following treatment with 3 µM Compound I, 3 µM Compound II, and 300 nM acute Compound III triple combination control (% Activity).
# F508del CFTR [1] = molecular target: T1, F508del CFTR (Homo sapiens, UniProt P13569, DEL508-508); experiment: Ussing chamber chloride transport, F508del/F508del HBE; format: cell-based; settings: for chloride transport: treatment for 16 to 24 h
# T1 construct: HBE cells derived from 3 F508del homozygous donors; endogenous in cells; host or cells: HBE cells from 3 F508del homozygous donors
# Description: (§1) Ussing chamber studies were conducted to measure F508del CFTR-mediated chloride transport in HBE cells derived from 3 F508del homozygous donors and 5 F508del/MF donors (G542X, 3 donors; E585X, 1 donor; 3905InsT, 1 donor). As a positive control, maximally effective concentrations of N-(benzenesulfonyl)-6-[3-[2-[1-(trifluoromethyl)cyclopropyl] ethoxy] pyrazol-1-yl]-2-[ ( 4S)-2,2,4-trimethylpyrrolidin-1-yl] pyridine-3-carboxamide (see WO 2018/064632) and N-[(6-amino-2-pyridyl)sulfonyl]-6-(3-fluoro-5-isobutoxy-phenyl)-2-[(4S)-2,2,4-trimethylpyrrolidin-1-yl]pyridine-3-carboxamide (see WO 2016/057572) in combination with Compound II/Compound III were included in each experiment.
# [2] = Safety analysis of an ongoing clinical study; format: in vivo
# Description: A safety analysis of an ongoing clinical study was performed for 37 subjects in Cohorts A1 to A5, 33 subjects in Cohort B, and 17 subjects in Cohort C, who were exposed to at least 1 dose of study drug (Compound I or placebo) as a monotherapy and as part of a triple combination with Compound II or Compound III.
# [3] = Systemic exposure with increasing dose and repeated oral administration for 28 d in dogs; format: in vivo
# [4] = Pharmacokinetics after a single oral administration in male rats; format: in vivo; settings: nominal dose 3 mg/kg, mean oral bioavailability
# F508del CFTR [5] = molecular target: T1, F508del CFTR; experiment: Ussing chamber chloride transport, F508del/MF HBE; format: cell-based; settings: for chloride transport: treatment for 16 to 24 h
# Description: as §1
# [6] = Pharmacokinetics after a single oral administration in male monkeys; format: in vivo; settings: nominal dose 1 mg/kg, mean oral bioavailability
# [7] = Pharmacokinetics after a single oral administration in male dogs; format: in vivo; settings: nominal dose 1 mg/kg, mean oral bioavailability
# [8] = Systemic exposure with increasing dose and repeated oral administration for 28 d in rats; format: in vivo
# [9] = with a fixed combination of Compound II
# [10] = with a fixed concentration of Compound III or Compound II/Compound III
# T1 sequence (P13569 with tags, fused parts or gaps DEL508-508): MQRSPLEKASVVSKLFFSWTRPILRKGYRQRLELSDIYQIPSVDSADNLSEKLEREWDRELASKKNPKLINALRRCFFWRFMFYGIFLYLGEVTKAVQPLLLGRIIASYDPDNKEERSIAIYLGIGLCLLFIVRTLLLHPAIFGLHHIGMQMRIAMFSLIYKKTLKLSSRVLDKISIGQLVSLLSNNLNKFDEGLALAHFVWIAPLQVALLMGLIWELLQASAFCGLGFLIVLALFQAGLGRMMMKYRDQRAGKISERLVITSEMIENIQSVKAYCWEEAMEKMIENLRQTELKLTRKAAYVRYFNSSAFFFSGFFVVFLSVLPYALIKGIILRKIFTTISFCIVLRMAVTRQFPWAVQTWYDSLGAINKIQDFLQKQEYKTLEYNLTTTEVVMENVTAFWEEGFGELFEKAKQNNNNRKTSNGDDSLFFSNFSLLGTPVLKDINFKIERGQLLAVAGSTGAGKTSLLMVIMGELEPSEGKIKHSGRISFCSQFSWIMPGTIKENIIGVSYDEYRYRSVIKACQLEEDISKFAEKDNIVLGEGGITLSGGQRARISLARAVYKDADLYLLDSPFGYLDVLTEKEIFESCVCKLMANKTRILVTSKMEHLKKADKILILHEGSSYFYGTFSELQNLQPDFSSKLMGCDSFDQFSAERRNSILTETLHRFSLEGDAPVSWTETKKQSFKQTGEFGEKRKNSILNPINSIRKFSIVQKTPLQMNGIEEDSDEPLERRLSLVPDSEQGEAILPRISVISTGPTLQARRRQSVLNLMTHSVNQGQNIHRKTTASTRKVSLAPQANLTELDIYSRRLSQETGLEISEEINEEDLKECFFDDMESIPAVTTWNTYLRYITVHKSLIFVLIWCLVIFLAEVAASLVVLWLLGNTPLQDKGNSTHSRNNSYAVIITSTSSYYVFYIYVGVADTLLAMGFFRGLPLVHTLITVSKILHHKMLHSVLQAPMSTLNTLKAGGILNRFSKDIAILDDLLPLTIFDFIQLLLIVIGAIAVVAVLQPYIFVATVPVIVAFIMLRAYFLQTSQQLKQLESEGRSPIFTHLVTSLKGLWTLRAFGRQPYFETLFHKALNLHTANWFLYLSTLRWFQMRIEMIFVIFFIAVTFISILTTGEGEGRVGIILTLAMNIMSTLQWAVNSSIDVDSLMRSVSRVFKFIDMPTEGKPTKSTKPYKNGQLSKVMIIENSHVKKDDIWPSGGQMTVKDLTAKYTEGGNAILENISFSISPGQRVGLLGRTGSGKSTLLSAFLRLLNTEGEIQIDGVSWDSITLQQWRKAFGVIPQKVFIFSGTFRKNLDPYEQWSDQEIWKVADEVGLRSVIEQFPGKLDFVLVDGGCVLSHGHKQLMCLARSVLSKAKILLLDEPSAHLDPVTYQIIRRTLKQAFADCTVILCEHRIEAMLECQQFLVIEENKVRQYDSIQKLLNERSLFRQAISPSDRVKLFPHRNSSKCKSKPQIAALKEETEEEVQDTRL
# Sequence of CFTR (P13569 whole entry): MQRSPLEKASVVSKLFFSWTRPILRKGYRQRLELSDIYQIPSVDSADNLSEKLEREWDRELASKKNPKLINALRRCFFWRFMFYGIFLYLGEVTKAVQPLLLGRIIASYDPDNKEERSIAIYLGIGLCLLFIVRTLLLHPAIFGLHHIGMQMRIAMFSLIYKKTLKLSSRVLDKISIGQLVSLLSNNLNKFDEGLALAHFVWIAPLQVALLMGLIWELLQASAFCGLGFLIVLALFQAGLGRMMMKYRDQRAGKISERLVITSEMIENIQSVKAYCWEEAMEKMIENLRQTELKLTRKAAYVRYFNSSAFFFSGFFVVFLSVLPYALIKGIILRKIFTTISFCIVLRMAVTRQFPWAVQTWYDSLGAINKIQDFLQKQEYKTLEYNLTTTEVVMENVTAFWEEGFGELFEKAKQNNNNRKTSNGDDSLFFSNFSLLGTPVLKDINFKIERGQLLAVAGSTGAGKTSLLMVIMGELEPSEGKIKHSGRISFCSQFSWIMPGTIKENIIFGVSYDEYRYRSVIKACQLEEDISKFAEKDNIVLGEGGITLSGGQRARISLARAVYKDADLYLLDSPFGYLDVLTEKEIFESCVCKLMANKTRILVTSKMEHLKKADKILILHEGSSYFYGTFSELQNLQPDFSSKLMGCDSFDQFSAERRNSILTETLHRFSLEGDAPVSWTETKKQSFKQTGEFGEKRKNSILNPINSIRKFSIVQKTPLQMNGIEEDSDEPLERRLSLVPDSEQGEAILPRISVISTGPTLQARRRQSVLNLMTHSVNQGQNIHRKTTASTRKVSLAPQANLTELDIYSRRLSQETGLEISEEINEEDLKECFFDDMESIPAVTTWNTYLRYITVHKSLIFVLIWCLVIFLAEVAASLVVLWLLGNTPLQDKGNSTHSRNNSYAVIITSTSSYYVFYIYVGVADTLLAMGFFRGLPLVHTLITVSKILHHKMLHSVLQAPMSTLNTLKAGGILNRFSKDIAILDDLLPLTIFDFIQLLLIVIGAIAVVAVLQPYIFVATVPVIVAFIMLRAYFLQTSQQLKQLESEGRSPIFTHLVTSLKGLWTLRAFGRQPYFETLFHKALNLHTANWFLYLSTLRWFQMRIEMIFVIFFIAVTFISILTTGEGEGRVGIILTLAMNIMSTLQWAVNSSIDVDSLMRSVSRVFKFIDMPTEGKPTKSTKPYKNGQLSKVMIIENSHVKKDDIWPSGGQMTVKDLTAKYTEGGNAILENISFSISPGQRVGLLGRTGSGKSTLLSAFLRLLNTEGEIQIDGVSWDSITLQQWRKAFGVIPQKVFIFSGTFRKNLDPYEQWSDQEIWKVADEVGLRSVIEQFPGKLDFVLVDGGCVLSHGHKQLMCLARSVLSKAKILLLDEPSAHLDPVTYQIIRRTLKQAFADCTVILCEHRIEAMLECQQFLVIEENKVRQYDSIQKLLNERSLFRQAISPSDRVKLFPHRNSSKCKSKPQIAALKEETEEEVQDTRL
EC50 (CFTR),synergy analysis (F508del CFTR [1]; [9]),synergy analysis (F508del CFTR [1]; [10]),F [4],synergy analysis (F508del CFTR [5]; [9]),synergy analysis (F508del CFTR [5]; [10]),F [6],F [7],"Dosenormalized exposure, sex comparison [8]",Compound,chloride transport (F508del CFTR [1]),"safety and tolerability ([2]; monotherapy, up to a dose of 60 mg qd)",safety and tolerability ([2]; up to 20 mg qd in triple combination with Compound II and Compound III),systemic exposure as the dose increased [3],chloride transport (F508del CFTR [5]),systemic exposure as the dose increased [8]
< 1 µM,modestly synergistic,highly synergistic,76.9%,modestly synergistic,highly synergistic,12.9%,49.7%,higher in female rats than male rats,"CC1(C)C[C@@H]2CCCNc3cccc(n3)S(=O)(=O)NC(=O)c3ccc(-n4ccc(OCCC5C6(CC6)C56CC6)n4)nc3N1C2 [Compound I, (14S)-8-[3-(2-{Dispiro[2.0.2.1]heptan-7-yl}ethoxy)-1H-pyrazol-1-yl]-12,12-dimethyl-2λ6-thia-3,9,11,18,23-pentaazatetracyclo[17.3.1.111,14.05,10]tetracosa-1(22),5,7,9,19(23),20-hexaene-2,2,4-trione]",modest increase,generally safe and well-tolerated,generally safe and well-tolerated,increased in a more than doseproportional manner,modest increase,increased in a more than doseproportional manner
,,,,,,,,,"CC(C)(C)c1cc(C(C)(C)C)c(NC(=O)c2c[nH]c3ccccc3c2=O)cc1O [Compound III, N-[2,4-bis(1,1-dimethylethyl)-5-hydroxyphenyl]-1,4-dihydro-4-oxoquinoline-3-carboxamide, reference compound]",strongly potentiated chloride transport in the presence of Compound I or in combination with Compound I/Compound II,,,,strongly potentiated chloride transport in the presence of Compound I or in combination with Compound I/Compound II,
